Laboratory results reported in patent publication US20240043427A1 (Gilead Sciences, Inc., priority 2020, published 2024).

Target: CD73 (Homo sapiens (Human), UniProt P21589)
Type: biochemical
Settings: 1 mM NaH2PO4 in enzyme buffer, CD73 0.3 nM, AMP 15 uM

CD73, sequence (P21589 27-574): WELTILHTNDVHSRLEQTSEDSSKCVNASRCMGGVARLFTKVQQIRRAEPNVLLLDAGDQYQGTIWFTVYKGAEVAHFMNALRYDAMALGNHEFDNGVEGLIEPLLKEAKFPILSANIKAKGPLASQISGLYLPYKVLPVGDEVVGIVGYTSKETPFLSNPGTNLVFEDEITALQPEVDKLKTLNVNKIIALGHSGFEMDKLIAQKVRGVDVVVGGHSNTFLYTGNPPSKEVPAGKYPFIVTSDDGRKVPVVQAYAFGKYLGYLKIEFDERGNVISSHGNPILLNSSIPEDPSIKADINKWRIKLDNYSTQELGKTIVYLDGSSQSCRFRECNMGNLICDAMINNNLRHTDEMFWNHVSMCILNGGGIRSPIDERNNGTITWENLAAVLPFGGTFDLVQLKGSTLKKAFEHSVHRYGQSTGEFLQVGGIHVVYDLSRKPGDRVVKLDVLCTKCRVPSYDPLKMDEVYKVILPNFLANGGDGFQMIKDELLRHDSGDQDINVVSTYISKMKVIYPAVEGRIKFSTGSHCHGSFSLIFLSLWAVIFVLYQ

Compound	IC50 [nM]
O=c1[nH]cc(-c2cc([C@H]3C[C@@H]3c3ccc4c(F)nn(CC(F)(F)F)c4c3)c3nccn3n2)c(=O)[nH]1 (racemic) [Example 117, 5-(8-((1S,2S)-2-(3-fluoro-1-(2,2,2-trifluoroethyl)-1H-indazol-6-yl)cyclopropyl)imidazo[1,2-b]pyridazin-6-yl)pyrimidine-2,4(1H,3H)-dione]	0.89
O=c1[nH]cc(-c2cc([C@H]3C[C@@H]3c3ccc4cnn(CC5CC5(F)F)c4c3)c3nccn3n2)c(=O)[nH]1 (mixture of isomers) [Example 118, 5-(8-((1S,2S)-2-(1-((2,2-difluorocyclopropyl)methyl)-1H-indazol-6-yl)cyclopropyl)imidazo[1,2-b]pyridazin-6-yl)pyrimidine-2,4(1H,3H)-dione]	0.79
O=c1[nH]cc(-c2cc([C@H]3C[C@@H]3c3cc4c(ccn4CC(F)(F)F)cn3)c3nccn3n2)c(=O)[nH]1 (racemic) [Example 127, 5-(8-((1S,2S)-2-(1-(2,2,2-trifluoroethyl)-1H-pyrrolo[3,2-c]pyridin-6-yl)cyclopropyl)imidazo[1,2-b]pyridazin-6-yl)pyrimidine-2,4(1H,3H)-dione]	1.13
O=c1[nH]cc(-c2cc([C@H]3C[C@@H]3c3ccc4c(C5CC5)nn(CC(F)(F)F)c4c3)c3nccn3n2)c(=O)[nH]1 (racemic) [Example 128, 5-(8-((1S,2S)-2-(3-cyclopropyl-1-(2,2,2-trifluoroethyl)-1H-indazol-6-yl)cyclopropyl)imidazo[1,2-b]pyridazin-6-yl)pyrimidine-2,4(1H,3H)-dione]	1.84
O=c1[nH]cc(-c2cc([C@H]3C[C@@H]3c3ccc4cnn(CC5CC5)c4c3)c3nccn3n2)c(=O)[nH]1 (racemic) [Example 130, 5-(8-((1S,2S)-2-(1-(cyclopropylmethyl)-1H-indazol-6-yl)cyclopropyl)imidazo[1,2-b]pyridazin-6-yl)pyrimidine-2,4(1H,3H)-dione]	1.01
O=c1[nH]cc(-c2cc([C@H]3C[C@@H]3c3ccc4ncsc4c3)c3nc(C4CC4)cn3n2)c(=O)[nH]1 (racemic) [Example 143, 5-(8-((1S,2S)-2-(benzo[d]thiazol-6-yl)cyclopropyl)-2-cyclopropylimidazo[1,2-b]pyridazin-6-yl)pyrimidine-2,4(1H,3H)-dione]	5.69
N#Cc1ccc([C@H]2C[C@@H]2c2cc(-c3c[nH]c(=O)[nH]c3=O)nn3c(F)cnc23)nc1 (racemic) [Example 151, 6-((1S,2S)-2-(6-(2,4-dioxo-1,2,3,4-tetrahydropyrimidin-5-yl)-3-fluoroimidazo[1,2-b]pyridazin-8-yl)cyclopropyl)nicotinonitrile]	1.36
O=c1[nH]cc(-c2cc([C@H]3C[C@@H]3c3ccc4cccnc4c3)c3nccn3n2)c(=O)[nH]1 (racemic) [Example 154, 5-(8-((1S,2S)-2-(quinolin-7-yl)cyclopropyl)imidazo[1,2-b]pyridazin-6-yl)pyrimidine-2,4(1H,3H)-dione]	1.56
N#Cc1ccc([C@H]2C[C@@H]2c2cc(-c3c[nH]c(=O)[nH]c3=O)nn3ccnc23)nc1 (racemic) [Example 155, 6-((1S,2S)-2-(6-(2,4-dioxo-1,2,3,4-tetrahydropyrimidin-5-yl)imidazo[1,2-b]pyridazin-8-yl)cyclopropyl)nicotinonitrile]	2.04
O=c1[nH]cc(-c2cc([C@H]3C[C@@H]3c3ccc4cnccc4c3)c3nccn3n2)c(=O)[nH]1 (racemic) [Example 156, 5-(8-((1S,2S)-2-(isoquinolin-6-yl)cyclopropyl)imidazo[1,2-b]pyridazin-6-yl)pyrimidine-2,4(1H,3H)-dione]	0.95
O=c1[nH]cc(-c2cc([C@H]3C[C@@H]3c3ccc4ncccc4c3)c3nccn3n2)c(=O)[nH]1 (racemic) [Example 157, 5-(8-((1S,2S)-2-(quinolin-6-yl)cyclopropyl)imidazo[1,2-b]pyridazin-6-yl)pyrimidine-2,4(1H,3H)-dione]	1.06
O=c1[nH]cc(-c2cc([C@H]3C[C@@H]3c3ccnc(C(F)(F)F)c3)c3nccn3n2)c(=O)[nH]1 (racemic) [Example 160, 5-(8-((1S,2S)-2-(2-(trifluoromethyl)pyridin-4-yl)cyclopropyl)imidazo[1,2-b]pyridazin-6-yl)pyrimidine-2,4(1H,3H)-dione]	15.4
O=c1[nH]cc(-c2cc([C@H]3C[C@@H]3c3ccncc3F)c3nccn3n2)c(=O)[nH]1 (racemic) [Example 161, 5-(8-((1S,2S)-2-(3-fluoropyridin-4-yl)cyclopropyl)imidazo[1,2-b]pyridazin-6-yl)pyrimidine-2,4(1H,3H)-dione]	4.48
O=c1[nH]cc(-c2cc([C@H]3C[C@@H]3c3cnc4ccccc4c3)c3nccn3n2)c(=O)[nH]1 (racemic) [Example 163, 5-(8-((1S,2S)-2-(quinolin-3-yl)cyclopropyl)imidazo[1,2-b]pyridazin-6-yl)pyrimidine-2,4(1H,3H)-dione]	2.13
O=c1[nH]cc(-c2cc([C@H]3C[C@@H]3c3cncc(F)c3)c3nccn3n2)c(=O)[nH]1 (racemic) [Example 164, 5-(8-((1S,2S)-2-(5-fluoropyridin-3-yl)cyclopropyl)imidazo[1,2-b]pyridazin-6-yl)pyrimidine-2,4(1H,3H)-dione]	3.58
O=c1[nH]cc(-c2cc([C@H]3C[C@@H]3c3ccc(C(F)(F)F)cc3F)c3nccn3n2)c(=O)[nH]1 (racemic) [Example 165, 5-(8-((1S,2S)-2-(2-fluoro-4-(trifluoromethyl)phenyl)cyclopropyl)imidazo[1,2-b]pyridazin-6-yl)pyrimidine-2,4(1H,3H)-dione]	5.06
O=c1[nH]cc(-c2cc([C@H]3C[C@@H]3c3cccc4ccncc34)c3nccn3n2)c(=O)[nH]1 (racemic) [Example 166, 5-(8-((1S,2S)-2-(isoquinolin-8-yl)cyclopropyl)imidazo[1,2-b]pyridazin-6-yl)pyrimidine-2,4(1H,3H)-dione]	43
O=c1[nH]cc(-c2cc([C@H]3C[C@@H]3c3ccnc4ccccc34)c3nccn3n2)c(=O)[nH]1 (racemic) [Example 167, 5-(8-((1S,2S)-2-(quinolin-4-yl)cyclopropyl)imidazo[1,2-b]pyridazin-6-yl)pyrimidine-2,4(1H,3H)-dione]	33
O=c1[nH]cc(-c2cc([C@H]3C[C@@H]3c3cccc4cnccc34)c3nccn3n2)c(=O)[nH]1 (racemic) [Example 168, 5-(8-((1S,2S)-2-(isoquinolin-5-yl)cyclopropyl)imidazo[1,2-b]pyridazin-6-yl)pyrimidine-2,4(1H,3H)-dione]	72.5
CCOC(=O)c1cn2nc(-c3c[nH]c(=O)[nH]c3=O)cc([C@H]3C[C@@H]3c3ccc(F)cc3)c2n1 (racemic) [Example 172, ethyl 6-(2,4-dioxo-1,2,3,4-tetrahydropyrimidin-5-yl)-8-((1S,2S)-2-(4-fluorophenyl)cyclopropyl)imidazo[1,2-b]pyridazine-2-carboxylate]	13.9
O=c1[nH]cc(-c2cc([C@H]3C[C@@H]3c3ccccn3)c3ncc(F)n3n2)c(=O)[nH]1 (racemic) [Example 178, 5-(3-fluoro-8-((1S,2S)-2-(pyridin-2-yl)cyclopropyl)imidazo[1,2-b]pyridazin-6-yl)pyrimidine-2,4(1H,3H)-dione]	2.65
